Results from US12281333B2, “Renal tube assay device and methods of manufacture and use” (The University of Kansas, priority 2020, dated 2025).

Key:
tubules of M1 cells = assay: Contractility of renal tubule model lined by M1 cells (kymogram analysis of time-lapse images); assay type: cell-based, mouse; conditions: for relative contraction (ratio of measured contraction to tubule diameter): percent of untreated tubule diameter, FIG. 3C
Method: (§1) Time-lapse recordings of kidney epithelial cells in hydrogel tunnels were performed on a Zeiss Axio Observer Z1 ® inverted microscope with a 10× Plan Neofluar® objective. The microscope was equipped with a Marzhauser SCAN-IM powered stage and a Zeiss AxioCam® MRm CCD camera. Cell cultures established in flow chambers within cell culture dishes (Greiner) were continuously kept in a stage-incubator (Cell Movie) providing 37° C. and humidified 5% CO2 atmosphere. Stage positioning, focusing and image collection were all controlled by Zeiss Axiovision® 4.8 software and a custom-made experiment manager software module. Phase contrast images were collected consecutively in every 10 minutes from several microscopic fields for up to 4 days. Alternatively, for real-time video microscopy the images were captured at a rate of 20 frames per second.
Contraction of renal tubule models were analyzed on the basis of image series captured by phase-contrast time-lapse video microscopy. Using NIH ImageJ software's Reslice function image series were resliced along a cross sectional line across the tubule resulting in a kymogram.
For inhibition of actomyosin contractility, Y27632, a cell-permeable Rho kinase inhibitor, (Merck Millipore (9) was applied. The inhibitor was dissolved in water and kept in 10 mM stock solutions and used at 50 μM final concentration. For control treatments, an identical volume of water was applied.
(§2) The inhibitor was applied at 50 μM final concentration in the flow chamber without circulation, resulting in dilation of the tunnel within 30 minutes. […] Both the dilation and contraction responses were quantitatively analyzed by constructing kymograms from the phase-contrast time-lapse image series as shown in FIG. 3A. In a collagen I gel, the diameter of 250 μm wide M1- or MDCK-lined tunnels contracted by 20 or 15 μm, respectively as shown in FIG. 3B. The relative contraction (as defined by the ratio of the measured contraction to tubule diameter) is larger for tubules with smaller diameters: while the 250 μm tubule contracts almost […] of its diameter, a 600 μm large tubule contracts only about 5% as shown in FIG. 3C.
FIGS. 3A-3C show the contractility of model renal tubules. FIG. 3A includes a representative kymogram along a perpendicular cross section of a tubule of M1 cells in collagen I gel matrix. Time progresses from top to bottom, a 10h long interval is indicated by the arrow. The duration of treatment with 50 μM Y27632 Rho kinase inhibitor is indicated with the red line (scale bar: 50 μm). FIGS. 3B-3C include graphs illustrating quantitative analysis of tubule contractility. […] Error bars represent SEM.

tubules of MDCK cells = assay: Contractility of renal tubule model lined by MDCK cells (kymogram analysis of time-lapse images); assay type: cell-based, canine; conditions: 250 μm wide MDCK-lined tunnels in collagen I gel; 50 μM inhibitor then washout; FIG. 3B, n=2
Method: as §1, with “Phase contrast images were collected consecutively in every 10 minutes from several microscopic fields for up to 4 days. Alternatively, for real-time video microscopy the images were captured at a rate of 20 frames per second.” left out
Contraction of renal tubule models were analyzed on the basis of image series captured by phase-contrast time-lapse video microscopy. […]
as §2, with “In a collagen I gel, the diameter of 250 μm wide M1- or MDCK-lined tunnels contracted by 20 or 15 μm, respectively as shown in FIG. 3B.” left out, “3C. […]” for “3C.”

C[C@@H](N)[C@H]1CC[C@H](C(=O)Nc2ccncc2)CC1 [Y27632]
time to dilation of the tunnel (tubules of M1 cells; 50 μM final concentration in the flow chamber without circulation, cell line not given, FIG. 3A kymogram is M1 cells in collagen I gel): ≤ 30 min | relative contraction (ratio of measured contraction to tubule diameter) (tubules of M1 cells; 250 μm tubule of M1 cells): ~13% | contraction of tunnel diameter (tubules of M1 cells; 250 μm wide M1-lined tunnels in collagen I gel, 50 μM inhibitor then washout, FIG. 3B, n=2): 20 μm | relative contraction (ratio of measured contraction to tubule diameter) (tubules of M1 cells; 600 μm tubule of M1 cells): about 5% | effect of subsequent washout of the inhibitor on the tunnel (tubules of M1 cells; after 50 μM treatment, washout): gradual contraction of the tunnel to approximately its initial state | contraction of tunnel diameter (tubules of MDCK cells): 15 μm
